In patent publication US20070166774A1, “Functional immunoassay” (priority 2006, published 2007):

System: antibody (anti-gadolinium-DTPA)
Test: Immunoassay of gadolinium DTPA, standard curve (HRP-conjugate, microtiter plate)
Format: binding, rabbit
Method: White New Zealand rabbits were injected subcutaneously with 1 mg of antigen (1 mg/ml) in multiple sites on the rabbit's back according to the schedule in Table 2. The initial injection was prepared in Freund's complete adjuvant. All other injections were prepared in Freund's incomplete adjuvant. Coating polystyrene microtiter plates. Microtiter strips were coated with 200 ul of 10 ug/ml antibody solution diluted in 0.1 M carbonate buffer pH 9 and incubated overnight at room temperature. The coated plates were blocked with a phosphate buffered saline, pH 7.4 solution containing bovine serum (5 mg/ml) and dextrose 20 mg/ml) for 30 minutes, blotted dry and stored at 4° C. until used. All plates were used within 5 days of preparation. In a typical preparation the coating antibody was a goat anti-rabbit serum. HRP-conjugates. HRP-conjugates prepared as described in Example 11 were diluted between 1 to 100 and 1 to 1000 into phosphate buffered saline, pH 7.4 buffer containing bovine albumin (1 mg/ml). General immunoassay protocols for analytes were performed as follows. 100 μl of standard or serum sample was pipeted into appropriate wells in duplicate followed by 100 μl of antibody. To each well was added 200 μl of HRP-conjugate. After a 60 minute incubation at room temperature the wells were aspirated and washed three times with phosphate buffered saline, pH 7.4 containing (0.1% serum albumin and 0.01% Tween 20. To each well was added 200 ul of substrate solution and incubated for 30 minutes at room temperature. The development of color was stopped by the addition of 50 μl of stop solution. The wells were read using a microtiter plate reader. Standard curve data for gadolinium DTPA is shown in Table 3. Standard values were chosen specifically for this assay as shown in Table 3.

O=C([O-])CN(CCN(CC(=O)[O-])CC(=O)[O-])CCN(CC(=O)[O-])CC(=O)[O-].[Gd+3] [Gadolinium DTPA, gadolinium DTPA]
Optical density, 450 nm (Gadolinium DTPA concentration 1 × 10^−2 M): 0.29
Optical density, 450 nm (Gadolinium DTPA concentration 1 × 10^−3 M): 0.42
Optical density, 450 nm (Gadolinium DTPA concentration 1 × 10^−4 M): 0.48
Optical density, 450 nm (Gadolinium DTPA concentration 1 × 10^−5 M): 0.57
Optical density, 450 nm (Gadolinium DTPA concentration 1 × 10^−6 M): 0.58
Optical density, 450 nm (Gadolinium DTPA concentration 5 × 10^−5 M): 0.55
Optical density, 450 nm (Gadolinium DTPA concentration 5 × 10^−6 M): 0.61
